Measured values taken from ChEMBL document CHEMBL1201862, “PubChem BioAssay data set” (2004).
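Test compounds were applied to cells in 96-well plates for 48 hours at 5 doses. Here, GI50 denotes the concentration required for 50% inhibition of growth.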 Calls of active or inactive are those of the source. Cut-off read from the data, not from the text of the source: active = GI50 up to about 1.1 µM and inactive = higher.

Experiments:
Experiment in all cases: inhibition of tumour cell growth, NCI panel, 48 h
OVCAR-4 = tested on: OVCAR-4
786-0 = tested on: 786-0
A549 = tested on: A549
SW-620 = tested on: SW-620
NCI-H460 = tested on: NCI-H460
UO-31 = tested on: UO-31
HL-60 = tested on: HL-60
A498 = tested on: A498
CCRF-CEM = tested on: CCRF-CEM
SF-539 = tested on: SF-539
TK-10 = tested on: TK-10
SNB-19 = tested on: SNB-19
SK-OV-3 = tested on: SK-OV-3
OVCAR-5 = tested on: OVCAR-5

SMILES	GI50 (OVCAR-4)	GI50 (786-0)	GI50 (A549)	GI50 (SW-620)	GI50 (NCI-H460)	GI50 (UO-31)	GI50 (HL-60)	GI50 (A498)	GI50 (CCRF-CEM)	GI50 (SF-539)	GI50 (TK-10)	GI50 (SNB-19)	GI50 (SK-OV-3)	GI50 (OVCAR-5)
CCO/C(CCn1[nH]c(=O)c(Cl)c(Cl)c1=O)=N\NC(=O)C(=O)NN	> 100 µM (inactive)	> 100 µM (inactive)	> 100 µM (inactive)	> 100 µM (inactive)	> 100 µM (inactive)	> 100 µM (inactive)	> 100 µM (inactive)	82.8 µM (inactive)	> 100 µM (inactive)	> 100 µM (inactive)	> 100 µM (inactive)	> 100 µM (inactive)	> 100 µM (inactive)	> 100 µM (inactive)
COc1ccc(C2[C@H]3C(=O)N(c4ccc(Cc5ccc(N6C(=O)[C@@H]7ON(c8ccccc8)C(c8ccc(OC)cc8)[C@@H]7C6=O)cc5)cc4)C(=O)[C@H]3ON2c2ccccc2)cc1 (stereo not given in full)	> 100 µM (inactive)	> 100 µM (inactive)	> 100 µM (inactive)	> 100 µM (inactive)	> 100 µM (inactive)	> 100 µM (inactive)	> 100 µM (inactive)	> 100 µM (inactive)	> 100 µM (inactive)	> 100 µM (inactive)	> 100 µM (inactive)	> 100 µM (inactive)	> 100 µM (inactive)	> 100 µM (inactive)
O=C(/C=C/c1ccccc1Cl)c1ccc(Cl)cc1Cl	15.6 µM (inactive)	16.6 µM (inactive)	21.3 µM (inactive)	1.74 µM (inactive)	17.3 µM (inactive)	21.7 µM (inactive)	16.5 µM (inactive)	18.8 µM (inactive)	4.02 µM (inactive)	23 µM (inactive)	17.7 µM (inactive)	15.5 µM (inactive)	19.4 µM (inactive)	17.1 µM (inactive)
CCOC(=O)NC(=O)c1cn(CCN2CCN(c3ncnc4[nH]cnc34)CC2)c(=O)[nH]c1=O	–	> 100 µM (inactive)	> 100 µM (inactive)	> 100 µM (inactive)	> 100 µM (inactive)	> 100 µM (inactive)	> 100 µM (inactive)	> 100 µM (inactive)	> 100 µM (inactive)	> 100 µM (inactive)	> 100 µM (inactive)	> 100 µM (inactive)	> 100 µM (inactive)	> 100 µM (inactive)
c1ccc([P+](CCC[P+](c2ccccc2)(c2ccccc2)c2ccccc2)(c2ccccc2)c2ccccc2)cc1	57 µM (inactive)	> 100 µM (inactive)	34 µM (inactive)	36.7 µM (inactive)	20 µM (inactive)	> 99.5 µM (inactive)	10.7 µM (inactive)	93.5 µM (inactive)	22.4 µM (inactive)	39 µM (inactive)	86.7 µM (inactive)	16.3 µM (inactive)	> 100 µM (inactive)	71.1 µM (inactive)
Cc1cc2c(C)nn(Cc3ccccc3)c2c(C(N)=O)c1C	> 100 µM (inactive)	> 100 µM (inactive)	> 100 µM (inactive)	> 100 µM (inactive)	> 100 µM (inactive)	67.9 µM (inactive)	–	> 100 µM (inactive)	> 100 µM (inactive)	> 100 µM (inactive)	> 100 µM (inactive)	> 100 µM (inactive)	> 100 µM (inactive)	> 100 µM (inactive)
C/C(=N\NC(=N)N)C(CN1CCCCC1)C(c1ccccc1)c1c(O)c2ccccc2oc1=O (stereo not given)	> 100 µM (inactive)	> 100 µM (inactive)	> 100 µM (inactive)	> 100 µM (inactive)	–	–	> 100 µM (inactive)	> 100 µM (inactive)	> 100 µM (inactive)	> 100 µM (inactive)	> 100 µM (inactive)	> 100 µM (inactive)	> 100 µM (inactive)	> 100 µM (inactive)
C[N+](C)(C)CC(=O)N/N=C(/Cc1nc2c3c(ccc2nc1O)C(=O)c1ccccc1C3=O)C(=O)Nc1ccc(Cl)c(Cl)c1	87.9 µM (inactive)	77.6 µM (inactive)	42.7 µM (inactive)	35.2 µM (inactive)	40.7 µM (inactive)	6.84 µM (inactive)	8.15 µM (inactive)	33.7 µM (inactive)	4.16 µM (inactive)	93.1 µM (inactive)	39.1 µM (inactive)	–	23.9 µM (inactive)	> 100 µM (inactive)
Cc1cc(C)nc(NS(=O)(=O)c2ccc(Nc3c4ccc(Cl)cc4nc4c(C(=O)Nc5ccc(S(=O)(=O)N=C(N)N)cc5)cccc34)cc2)n1	> 100 µM (inactive)	> 100 µM (inactive)	–	–	> 100 µM (inactive)	> 100 µM (inactive)	–	> 100 µM (inactive)	20.6 µM (inactive)	> 100 µM (inactive)	98.6 µM (inactive)	> 100 µM (inactive)	> 100 µM (inactive)	> 100 µM (inactive)
Clc1ncnc2c1ncn2CCCCCCCCCCCCn1cnc2c(Cl)ncnc21	11.1 µM (inactive)	17.7 µM (inactive)	11.7 µM (inactive)	22.4 µM (inactive)	16.4 µM (inactive)	13.1 µM (inactive)	2.7 µM (inactive)	12.2 µM (inactive)	1.36 µM (inactive)	14.4 µM (inactive)	22.1 µM (inactive)	14.7 µM (inactive)	16.4 µM (inactive)	27.7 µM (inactive)
COc1ccc(CC2(Cc3ccc(OC)cc3)CCOC2=O)cc1	> 100 µM (inactive)	44 µM (inactive)	> 100 µM (inactive)	> 100 µM (inactive)	> 100 µM (inactive)	> 100 µM (inactive)	> 100 µM (inactive)	> 100 µM (inactive)	> 100 µM (inactive)	–	> 100 µM (inactive)	> 100 µM (inactive)	> 100 µM (inactive)	> 100 µM (inactive)
C/C(=C1/N=C(c2cc([N+](=O)[O-])ccc2Cl)N(c2cccc(C)c2)C1=O)c1cc2ccccc2oc1=O	–	> 100 µM (inactive)	> 100 µM (inactive)	29.4 µM (inactive)	47.8 µM (inactive)	> 100 µM (inactive)	28.7 µM (inactive)	> 100 µM (inactive)	23.3 µM (inactive)	–	> 100 µM (inactive)	95.5 µM (inactive)	> 100 µM (inactive)	> 100 µM (inactive)
C#CCNC(=O)ON1C(=O)CCC1=O	> 100 µM (inactive)	> 100 µM (inactive)	> 100 µM (inactive)	> 100 µM (inactive)	> 100 µM (inactive)	> 100 µM (inactive)	> 100 µM (inactive)	> 100 µM (inactive)	> 100 µM (inactive)	> 100 µM (inactive)	> 100 µM (inactive)	> 100 µM (inactive)	> 100 µM (inactive)	> 100 µM (inactive)
O=C1c2c(n(Cc3ccccc3)c(=O)n2Cc2ccccc2)C(=O)N1Cc1ccccc1	46.5 µM (inactive)	> 100 µM (inactive)	41.9 µM (inactive)	47.9 µM (inactive)	72.4 µM (inactive)	50.2 µM (inactive)	0.782 µM (active)	70 µM (inactive)	9.2 µM (inactive)	> 100 µM (inactive)	> 100 µM (inactive)	89.1 µM (inactive)	> 100 µM (inactive)	> 100 µM (inactive)
COC(=O)c1c(CC(=O)OC(C)C)cc2n(c1=O)Cc1c-2nc2ccccc2c1OC	> 100 µM (inactive)	> 100 µM (inactive)	> 100 µM (inactive)	> 100 µM (inactive)	> 100 µM (inactive)	> 100 µM (inactive)	> 100 µM (inactive)	> 100 µM (inactive)	> 100 µM (inactive)	–	> 100 µM (inactive)	> 100 µM (inactive)	> 100 µM (inactive)	> 100 µM (inactive)
O=C(Cc1nc2ccccc2c(=O)n1-c1c(Cl)cccc1Cl)c1ccncc1	27.5 µM (inactive)	24.6 µM (inactive)	21.4 µM (inactive)	36.6 µM (inactive)	21.4 µM (inactive)	13.3 µM (inactive)	12 µM (inactive)	30.5 µM (inactive)	16.7 µM (inactive)	18.4 µM (inactive)	> 10 µM (inactive)	31.4 µM (inactive)	53.1 µM (inactive)	–
Cc1nc(-c2nc(C)c(C(=O)/C=C/c3ccc([N+](=O)[O-])cc3)s2)sc1C(=O)/C=C/c1ccc([N+](=O)[O-])cc1	–	> 100 µM (inactive)	> 100 µM (inactive)	> 100 µM (inactive)	> 100 µM (inactive)	> 100 µM (inactive)	> 100 µM (inactive)	> 100 µM (inactive)	> 10 µM (inactive)	> 100 µM (inactive)	> 100 µM (inactive)	> 100 µM (inactive)	> 100 µM (inactive)	> 100 µM (inactive)
Cn1c(=O)oc2cc(C3CCC(=O)N3Cc3ccc(Cl)cc3)ccc21 (stereo not given)	> 100 µM (inactive)	> 100 µM (inactive)	> 100 µM (inactive)	> 100 µM (inactive)	> 100 µM (inactive)	> 100 µM (inactive)	> 100 µM (inactive)	–	> 100 µM (inactive)	> 100 µM (inactive)	> 100 µM (inactive)	> 100 µM (inactive)	93.3 µM (inactive)	> 100 µM (inactive)
O=C(CCCCCCCCCCc1ccccc1)c1c(O)cccc1O	25.3 µM (inactive)	17.7 µM (inactive)	27.7 µM (inactive)	19.5 µM (inactive)	20.8 µM (inactive)	21.1 µM (inactive)	25.1 µM (inactive)	–	31.6 µM (inactive)	18.1 µM (inactive)	39 µM (inactive)	20.2 µM (inactive)	44.8 µM (inactive)	21.2 µM (inactive)
